Reference: PMC6691587, “New CXCR1/CXCR2 inhibitors represent an effective treatment for kidney or head and neck cancers sensitive or refractory to reference treatments” (Theranostics, 2019)
Like-named read-outs stand apart in the source and are kept apart here.

Key:
CAL27 = test: XTT cell viability assay, CAL27 HNSCC cells; assay type: cell-based, human; conditions: XTT assay, 48 h, SD 10%, mean of three experiments, read-out: IC50 27 (HNSCC)
Description: (§1) Fifty microliters of sodium 3′-[1-phenylaminocarbonyl)-3,4-tetrazolium]-bis(4-methoxy-6-nitro) benzene sulfonic acid hydrate (XTT) reagent was added to each well. The assay is based on the cleavage of the yellow tetrazolium salt XTT to form an orange formazan dye by metabolically active cells. This bio-reduction occurs in viable cells only and is related to NAD(P)H production through glycolysis. Therefore, the amount of formazan dye measured at 490 nm directly correlated with the number of metabolically active cells reflecting cell proliferation and viability. Each assay was performed in quadruplicate.

CAL33 = test: XTT cell viability assay, CAL33 HNSCC cells; assay type: cell-based, human; conditions: XTT assay, 48 h, SD 10%, mean of three experiments, read-out: IC50 33 (HNSCC)
Description: as §1

A498 = test: XTT cell viability assay, A498 RCC cells; assay type: cell-based, human; conditions: XTT assay, 48 h, SD 10%, mean of three experiments, read-out: IC50 498 (Kidney RCC)
Description: as §1

RCC4 = test: XTT cell viability assay, RCC4 RCC cells; assay type: cell-based, human; conditions: SD 10%, mean of three experiments, read-out: IC50 R4 (Kidney RCC)
Description: as §1

786-O = test: XTT cell viability assay, 786-O RCC cells; assay type: cell-based, human; conditions: XTT assay, 48 h, SD 10%, mean of three experiments, read-out: IC50 786 (Kidney RCC)
Description: as §1

MDA-MD-231 = test: XTT cell viability assay, breast cancer cells; assay type: cell-based, human; conditions: 48 h, SD 10%, mean of three experiments
Description: as §1

OCI-AML2 = test: XTT cell viability assay, OCI-AML2 AML cells; assay type: cell-based, human; conditions: SD 10%, mean of three experiments, read-out: IC50 L2 (AML)
Description: as §1

OCI-AML3 = test: XTT cell viability assay, OCI-AML3 AML cells; assay type: cell-based, human; conditions: SD 10%, mean of three experiments, read-out: IC50 L3 (AML)
Description: as §1

Molm13 = test: XTT cell viability assay, Molm13 AML cells; assay type: cell-based, human; conditions: SD 10%, mean of three experiments
Description: as §1

Molm14 = test: XTT cell viability assay, Molm14 AML cells; assay type: cell-based, human; conditions: SD 10%, mean of three experiments
Description: as §1

SKM1 = test: XTT cell viability assay, SKM1 MDS cells; assay type: cell-based, human; conditions: SD 10%, mean of three experiments, read-out: IC50 SK (MDS)
Description: as §1

K562 = test: XTT cell viability assay, K562 CML cells; assay type: cell-based, human; conditions: SD 10%, mean of three experiments
Description: as §1

[1] = test system: panel of human tumor cell lines; test: XTT screening on a panel of tumor cell lines; assay type: cell-based; conditions: for IC50: Homo sapiens; for anti-proliferation/survival activity on malignant cells: in words
Description: as §1

HuVEC = test: Boyden chamber migration assay; assay type: cell-based, human; conditions: CXCL7 50 ng/ml, 2.5 µmol/L compound
Description: CXCL7 or VEGFA-stimulated chemotaxis assays were monitored using modified Boyden chambers containing polycarbonate membranes (8-μm pores, Transwell; Corning, Sigma). Cells were seeded onto the upper side of the filters and chambers were placed on 24-well plates containing CXCL7 (50ng/ml) or VEGFA (50ng/ml). Cell migration was followed for 24 h at 37°C in 5% CO2. Migratory cells on the lower membrane surface were fixed in 3% paraformaldehyde, stained with 0.1% crystal violet.

786-O cells = test: Ectopic model of RCC (786-O xenograft); assay type: in vivo, nude (nu/nu) female mice; conditions: C29 100 µg i.p. three per week; danirixin 200 µg three times a week; sunitinib 50 mg/kg oral gavage five times a week
Description: These studies were carried out in strict accordance with the recommendations in the Guide for the Care and Use of Laboratory Animals. Our experiments were approved by the ''Comité National Institutionnel d'Ethique pour l'Animal de Laboratoire'' (reference: PEA-255 and PEA-277). Cells were injected subcutaneously into the flank of 5-week-old nude (nu/nu) female mice (Janvier). When the tumor reached 100 mm^3, mice were treated. The tumor volume was determined with a caliper (v = L*l2*0.5).
2- Seven million 786-O cells were injected subcutaneously.

[2] = read-out: IC50 values for several cancer cell lines
[3] = read-out: IC50 for solid tumors (breast and kidney)

| Structure (SMILES) | IC50 (CAL27; Homo sapiens, CAL-27) [µM] | IC50 (CAL33; Homo sapiens, CAL-33) [µM] | IC50 (A498; Homo sapiens, A498) [µM] | IC50 (RCC4; Homo sapiens, RCC4, 48 h) [µM] | IC50 (786-O; Homo sapiens, 786-0) [µM] | IC50 (MDA-MD-231; Homo sapiens) [µM] | IC50 (OCI-AML2; Homo sapiens, OCI-AML2, 48 h) [µM] | IC50 (OCI-AML3; Homo sapiens, OCI-AML-3, 48 h) [µM] | IC50 (Molm13; Homo sapiens, MOLM-13, 48 h) [µM] | IC50 (Molm14; Homo sapiens, MOLM-14, 48 h) [µM] | IC50 (SKM1; Homo sapiens, SKM-1, 48 h) [µM] | IC50 (K562; Homo sapiens, K562, 48 h) [µM] | IC50 [1, 2] [µM] | other results |
| --- | --- | --- | --- | --- | --- | --- | --- | --- | --- | --- | --- | --- | --- | --- |
| Cc1ccc2nc(NC(=O)Nc3ccccc3Cl)sc2c1 [C25] | 5 | 10 | 15 | > 25 | 15 | > 25 | > 25 | 10 | 15 | 10 | 25 | 25 | < 20 | – |
| Cc1c(F)cccc1NC(=O)Nc1ccc(Cl)c(S(=O)(=O)[C@H]2CCCNC2)c1O [danirixin, reference compound] | – | – | – | – | – | – | – | – | – | – | – | – | – | CXCL7-dependent migration of HuVECs (HuVEC): no effect; efficacy on tumor growth, 786-O xenograft (786-O cells): equivalent efficacy |
| CCN(CC)CCNC(=O)c1c(C)[nH]c(/C=C2\C(=O)Nc3ccc(F)cc32)c1C [sunitinib] | – | – | – | – | – | – | – | – | – | – | – | – | – | efficacy on tumor growth, 786-O xenograft (786-O cells): equivalent efficacy |
| O=C(Nc1cccc(Cl)c1)Nc1cccc(Cl)c1 [C9] | 12 | 10 | 10 | 15 | 15 | 15 | 20 | > 25 | > 25 | 20 | > 25 | 10 | – | IC50 [1, 3]: 10 to 20 µM |
| CCOc1ccc2nc(NC(=O)Nc3ccccc3C)sc2c1 [C30] | 5 | 15 | 15 | > 25 | 15 | 12 | 15 | 7 | 15 | 10 | 15 | 4 | < 20 | – |
| O=C(Nc1ccc(Cl)cc1)Nc1ccccc1O [C12] | 12 | 10 | 10 | 15 | 15 | 12 | 15 | 25 | > 25 | 15 | > 25 | 25 | – | IC50 [1, 3]: 10 to 20 µM |
| O=C(Nc1nc2ccc([N+](=O)[O-])cc2s1)Nc1ccccc1Cl [C28] | 7 | 5 | 5 | 7 | 5 | 8 | 10 | 10 | 5 | 10 | 10 | 7 | < 20 | – |
| O=C(Nc1ccc([N+](=O)[O-])cc1O)Nc1ccccc1Br [SB225002, reference compound] | – | – | – | – | – | – | – | – | – | – | – | – | – | IC50 (CAL27): 100 µM; IC50 (CAL33): 80 µM; IC50 (A498): 70 µM; IC50 (RCC4; 48 h): 100 µM; IC50 (786-O): 100 µM; IC50 (MDA-MD-231): 100 µM; IC50 (OCI-AML2; 48 h): > 100 µM; IC50 (OCI-AML3; 48 h): 90 µM; IC50 (Molm13; 48 h, read-out: IC50 13 (AML)): > 100 µM; IC50 (Molm14; 48 h, read-out: IC50 14 (AML)): 90 µM; IC50 (SKM1; 48 h): > 100 µM; IC50 (K562; 48 h): > 100 µM; effect on RCC and HNSCC cells ([1]; 786, 786R, CAL27, CAL27R (Figure S7), compared to C29): modest effect |
| O=C(Nc1ccc(Cl)cc1)Nc1nc2ccccc2[nH]1 [C16] | 15 | 15 | 9 | 20 | 20 | 20 | 20 | 22 | > 25 | 20 | > 25 | 12 | < 20 | – |
| O=C(Nc1cccc(Cl)c1)Nc1nc2ccccc2s1 [C22] | > 25 | > 25 | > 25 | 20 | > 25 | > 25 | > 25 | > 25 | > 25 | > 25 | > 25 | 25 | – | – |
| S=C(Nc1ccccc1)Nc1nc2ccccc2o1 [C19] | > 25 | > 25 | > 25 | > 25 | > 25 | > 25 | > 25 | > 25 | > 25 | > 25 | > 25 | > 25 | – | anti-proliferation/survival activity on malignant cells [1]: did not give anti-proliferation/survival activity |
| O=C(Nc1ccccc1)Nc1nc2ccccc2o1 [C18] | > 25 | > 25 | > 25 | > 25 | > 25 | > 25 | > 25 | > 25 | > 25 | > 25 | > 25 | > 25 | – | anti-proliferation/survival activity on malignant cells [1]: did not give anti-proliferation/survival activity |
